Results on five compounds are retold here after patent publication US8912186B2, “Allosteric protein kinase modulators” (Universitaet des Saarlandes, priority 2008, dated 2014).

What all share (type): biochemical
One test deals with PRK2 (Homo sapiens, UniProt Q16513). Put plainly: cell-free kinase activity assay. The note with it: DMSO control set 100%.
In the next test the target is T1, SGK (Homo sapiens, UniProt O00141).
T1 sequence (O00141 1-431): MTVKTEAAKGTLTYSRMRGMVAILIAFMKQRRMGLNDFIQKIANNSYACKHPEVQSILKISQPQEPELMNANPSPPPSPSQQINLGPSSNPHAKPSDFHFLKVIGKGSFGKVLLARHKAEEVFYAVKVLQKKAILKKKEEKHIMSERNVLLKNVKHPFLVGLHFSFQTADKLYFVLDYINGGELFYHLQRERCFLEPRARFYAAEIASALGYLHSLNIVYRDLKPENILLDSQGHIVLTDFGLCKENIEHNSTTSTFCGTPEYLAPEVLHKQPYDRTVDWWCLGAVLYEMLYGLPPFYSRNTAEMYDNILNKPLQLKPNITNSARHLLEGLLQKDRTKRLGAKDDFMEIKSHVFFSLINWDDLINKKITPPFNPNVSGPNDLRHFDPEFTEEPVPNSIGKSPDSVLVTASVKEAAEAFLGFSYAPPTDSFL
Put plainly: cell-free kinase activity assay. The conditions noted are these: DMSO control set 100%; for remaining activity at 200 µM / remaining activity at 50 µM: read-out: percent of catalytic activity of the Kinase in the presence of compound as compared to the solvent control (DMSO): SGK.

A further test has as its target PKBβ (Homo sapiens, UniProt P31751). Briefly: cell-free kinase activity assay. The conditions noted are these: DMSO control set 100%; for remaining activity at 50 µM / percent of catalytic activity of the Kinase in the presence of compound as compared to the solvent control (DMSO): PKBβ: 50 μM compound; for remaining activity at 50 µM / remaining activity at 200 µM: read-out: percent of catalytic activity of the Kinase in the presence of compound as compared to the solvent control (DMSO): PKBβ; for remaining activity at 200 µM: 200 μM compound.

For another test, the target named is S6K (Homo sapiens, UniProt P23443). Briefly: cell-free kinase activity assay. The conditions noted are these: DMSO control set 100%; for remaining activity at 50 µM / remaining activity at 200 µM: read-out: percent of catalytic activity of the Kinase in the presence of compound as compared to the solvent control (DMSO): S6K.
S6K, sequence (P23443 whole entry): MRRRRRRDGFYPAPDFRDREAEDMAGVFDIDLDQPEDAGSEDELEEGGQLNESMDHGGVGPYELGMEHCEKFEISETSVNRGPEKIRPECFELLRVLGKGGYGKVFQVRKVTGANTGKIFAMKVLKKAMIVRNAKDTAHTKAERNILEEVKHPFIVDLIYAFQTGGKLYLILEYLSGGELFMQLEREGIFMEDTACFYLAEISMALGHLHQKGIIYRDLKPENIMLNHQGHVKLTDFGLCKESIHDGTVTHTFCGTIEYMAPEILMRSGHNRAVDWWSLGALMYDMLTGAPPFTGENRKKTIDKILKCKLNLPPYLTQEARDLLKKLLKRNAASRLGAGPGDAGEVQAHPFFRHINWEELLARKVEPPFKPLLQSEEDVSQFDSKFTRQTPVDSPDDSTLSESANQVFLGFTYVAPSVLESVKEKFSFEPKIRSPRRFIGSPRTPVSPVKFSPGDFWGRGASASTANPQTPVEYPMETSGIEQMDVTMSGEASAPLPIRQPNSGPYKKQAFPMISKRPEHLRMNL
Another test addresses T2, PDK1 (Homo sapiens, UniProt O15530).
T2 construct: GST
T2 sequence (O15530 1-556): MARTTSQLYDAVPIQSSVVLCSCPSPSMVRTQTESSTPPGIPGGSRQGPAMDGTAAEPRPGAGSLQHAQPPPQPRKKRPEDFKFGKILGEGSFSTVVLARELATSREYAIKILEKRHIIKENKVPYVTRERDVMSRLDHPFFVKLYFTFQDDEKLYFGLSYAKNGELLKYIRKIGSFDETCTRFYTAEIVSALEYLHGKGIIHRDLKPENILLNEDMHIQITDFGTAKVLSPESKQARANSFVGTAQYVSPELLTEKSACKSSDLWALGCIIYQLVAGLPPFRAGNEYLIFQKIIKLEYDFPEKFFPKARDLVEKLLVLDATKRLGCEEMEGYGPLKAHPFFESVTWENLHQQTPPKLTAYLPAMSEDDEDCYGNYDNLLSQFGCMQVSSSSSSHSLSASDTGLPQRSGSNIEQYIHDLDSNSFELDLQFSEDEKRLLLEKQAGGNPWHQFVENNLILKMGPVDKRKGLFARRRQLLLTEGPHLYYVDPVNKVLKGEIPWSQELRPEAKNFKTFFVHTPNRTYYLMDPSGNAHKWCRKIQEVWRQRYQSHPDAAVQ
Briefly: cell-free kinase activity assay (ATPgamma[32P], T308tide substrate). The note with it: for activity at 50 µM: 50 μM compound; for activity at 50 µM / activity at 200 µM: DMSO control set 100%, read-out: percent of catalytic activity of the Kinase in the presence of compound as compared to the solvent control (DMSO): PDK1; for activity at 200 µM: 200 μM compound; for AC50: concentration of the compound required to activate half maximally; for AC50 / max. activation of PDK1 (fold): n.e.: no effect; for max. activation of PDK1 (fold): maximum activation achievable, compared to the basal activity of PDK1. An excerpt:
Principle of the cell-free kinase activity assay: In general, the activity of the compounds as protein kinase inhibitors or activators may be assayed in vitro (cell free assay is meant here), in vivo or in a cell line. In vitro assays include assays that determine inhibition or activation of either the phosphorylation activity or ATPase activity of the activated protein kinase. Alternate in vitro assays quantitate the ability of the inhibitor to bind to the protein kinase. Compound binding may be measured by radiolabelling the compound prior to binding, isolating the inhibitor or activator/protein kinase complex and determining the amount of radiolabel bound. Alternatively, inhibitor or activator binding may be determined by running a competition experiment where new compounds are incubated with the protein kinase bound to known radioligands. Newer methods comprise fluorescence polarisation assays and surface plasmon resonance dependent techniques. […] The activity and modulation of activity is measured using a standard ATPgamma[^32P] assay as described earlier. […] The concentration of T308tide is 1 mM and the amount of PDK1 used is 200 ng. Reactions are carried out at room temperature. Reaction is started by addition of ATP-Mg mix and stopped with phosphoric acid after 30 min. Stopped reactions were spotted on to phosphocellulose paper (P81, Whatman) and washed. After drying, the radioactivity associated to the band was quantified.

The target in another test is T3, PKCζ (Homo sapiens, UniProt Q05513).
T3 sequence (Q05513 1-592): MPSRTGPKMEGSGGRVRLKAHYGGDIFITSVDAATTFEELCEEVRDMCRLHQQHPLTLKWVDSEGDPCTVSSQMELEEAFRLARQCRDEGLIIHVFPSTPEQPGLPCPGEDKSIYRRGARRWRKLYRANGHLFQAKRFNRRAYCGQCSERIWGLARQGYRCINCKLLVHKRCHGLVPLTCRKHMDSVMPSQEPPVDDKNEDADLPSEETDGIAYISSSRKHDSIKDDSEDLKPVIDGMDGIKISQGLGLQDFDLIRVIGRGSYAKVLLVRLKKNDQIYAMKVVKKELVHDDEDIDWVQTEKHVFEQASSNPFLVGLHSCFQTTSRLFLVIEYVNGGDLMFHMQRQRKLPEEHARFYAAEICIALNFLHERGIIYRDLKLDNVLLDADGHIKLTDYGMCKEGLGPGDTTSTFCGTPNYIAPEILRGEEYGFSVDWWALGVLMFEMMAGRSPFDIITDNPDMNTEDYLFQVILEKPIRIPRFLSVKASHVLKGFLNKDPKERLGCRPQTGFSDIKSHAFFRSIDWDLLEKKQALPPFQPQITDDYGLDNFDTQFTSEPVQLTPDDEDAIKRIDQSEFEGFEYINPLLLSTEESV
Put plainly: cell-free kinase activity assay. The conditions noted are these: DMSO control set 100%; for remaining activity at 50 µM / remaining activity at 200 µM: read-out: percent of catalytic activity of the Kinase in the presence of compound as compared to the solvent control (DMSO): PKCζ; for remaining activity at 200 µM: 200 μM compound.

Another test deals with PKA (Homo sapiens, UniProt P17612). Put plainly: cell-free kinase activity assay. The conditions noted are these: DMSO control set 100%.

In general, AC50 refers to the concentration giving half of the maximal activity seen. A lower AC50 goes with greater potency.

PRK2, sequence (Q16513 whole entry, species assumed): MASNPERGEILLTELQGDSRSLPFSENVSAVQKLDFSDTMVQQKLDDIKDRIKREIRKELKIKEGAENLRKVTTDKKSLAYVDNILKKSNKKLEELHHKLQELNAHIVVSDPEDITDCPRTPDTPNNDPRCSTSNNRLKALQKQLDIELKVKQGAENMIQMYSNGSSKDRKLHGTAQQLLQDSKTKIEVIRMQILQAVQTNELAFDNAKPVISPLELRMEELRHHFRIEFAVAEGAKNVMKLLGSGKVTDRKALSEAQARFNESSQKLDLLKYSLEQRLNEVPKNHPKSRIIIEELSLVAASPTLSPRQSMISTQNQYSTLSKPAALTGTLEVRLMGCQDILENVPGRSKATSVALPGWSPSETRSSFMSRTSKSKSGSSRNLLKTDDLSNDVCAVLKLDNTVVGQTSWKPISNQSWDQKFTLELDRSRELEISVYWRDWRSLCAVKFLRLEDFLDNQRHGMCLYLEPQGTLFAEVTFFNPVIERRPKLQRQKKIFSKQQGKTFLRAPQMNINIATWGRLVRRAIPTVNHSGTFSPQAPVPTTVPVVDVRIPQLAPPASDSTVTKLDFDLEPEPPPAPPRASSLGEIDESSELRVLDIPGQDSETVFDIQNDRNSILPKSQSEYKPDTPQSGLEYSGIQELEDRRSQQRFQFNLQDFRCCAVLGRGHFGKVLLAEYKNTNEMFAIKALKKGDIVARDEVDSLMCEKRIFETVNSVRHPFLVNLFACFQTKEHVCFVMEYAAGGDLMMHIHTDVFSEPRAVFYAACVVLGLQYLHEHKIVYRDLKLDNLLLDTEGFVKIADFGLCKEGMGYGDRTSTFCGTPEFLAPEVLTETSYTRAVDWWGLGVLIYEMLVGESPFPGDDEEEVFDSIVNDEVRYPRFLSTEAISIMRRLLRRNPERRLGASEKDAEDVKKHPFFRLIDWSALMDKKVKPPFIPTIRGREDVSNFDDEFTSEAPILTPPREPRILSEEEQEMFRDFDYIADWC
PKBβ, sequence (P31751 whole entry, species assumed): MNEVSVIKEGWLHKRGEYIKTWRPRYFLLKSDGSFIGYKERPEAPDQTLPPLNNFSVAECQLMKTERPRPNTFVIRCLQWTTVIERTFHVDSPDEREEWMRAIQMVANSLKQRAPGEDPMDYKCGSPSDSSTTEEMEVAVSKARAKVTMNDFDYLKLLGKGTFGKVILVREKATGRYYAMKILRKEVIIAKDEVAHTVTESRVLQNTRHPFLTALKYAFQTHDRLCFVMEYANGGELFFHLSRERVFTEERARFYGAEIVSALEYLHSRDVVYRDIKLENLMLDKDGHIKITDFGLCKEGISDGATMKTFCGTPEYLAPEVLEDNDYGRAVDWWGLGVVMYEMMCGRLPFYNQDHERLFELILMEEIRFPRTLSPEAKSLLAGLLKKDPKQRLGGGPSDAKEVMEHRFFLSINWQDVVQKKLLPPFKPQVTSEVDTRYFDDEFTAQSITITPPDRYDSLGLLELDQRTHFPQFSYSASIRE

For the compound `O=C(O)/C=C(/CCc1cccc(Cl)c1)c1ccccc1` [PS 87, (Z)-5-(3-Chlorophenyl)-3-phenylpent-2-enoic acid], the “percent of catalytic activity of the Kinase in the presence of compound as compared to the solvent control (DMSO): PRK2” value (from here on “percent of catalytic activity … PRK2”) at PRK2 (50 μM compound) and at PRK2 (200 μM compound) was “no effect” in each case. For the same compound, on SGK (50 μM compound), the “percent of catalytic activity of the Kinase in the presence of compound as compared to the solvent control (DMSO): SGK” value (shortened to “percent of catalytic activity … SGK”) was “no effect”. The remaining activity at 200 µM on SGK (200 μM compound) was 60%; at PKBβ, approximately 60%; on S6K (200 μM compound), 65%; at PKCζ it was 3%. The remaining activity at 50 µM was approximately 80% at PKBβ, 90% on S6K (50 μM compound) and 45% on PKCζ (50 μM compound). The activity at 50 µM at PDK1 was determined as 150%. In addition, the activity at 200 µM on PDK1 stood at 150%. Besides, the activity at PDK1 was half-maximal at 11.6 µM (AC50). The “max. activation of PDK1 (fold)” value at PDK1 is 4.1 fold.
Regarding `O=C(O)/C=C1\c2ccccc2CC1Cc1ccc(Cl)cc1` (stereo not drawn) [PS 102], the “percent of catalytic activity … PRK2” value at PRK2 (50 μM compound) was “no effect”. For the same compound, the remaining activity at 200 µM is 110% on PRK2 (200 μM compound, read-out: percent of catalytic activity of the Kinase in the presence of compound as compared to the solvent control (DMSO): PRK2); 50% at SGK (200 μM compound); 60 to 70% at PKBβ; 55% at S6K (200 μM compound); 2% on PKCζ. For the same compound, the remaining activity at 50 µM on SGK (50 μM compound) is 112%; on PKBβ it was 80 to 90%; at S6K (50 μM compound), 90%; on PKCζ (50 μM compound), 45%. Further, the activity at 200 µM on PDK1 worked out at 180%. Besides, on PDK1, the AC50 came to 30 µM. At PDK1, the “max. activation of PDK1 (fold)” value was 1.8 fold.
With `O=C(O)CC(Cc1nc2cc(Cl)ccc2[nH]1)c1ccc(Cl)cc1` (stereo not drawn) [PS 114, 4-(5-Chloro-2-benzimidazolyl)-3-(4-chlorophenyl)butanoic acid], the “percent of catalytic activity … PRK2” value on PRK2 (50 μM compound) and on PRK2 (200 μM compound) was “no effect” in each case. In addition, the “percent of catalytic activity … SGK” value on SGK (50 μM compound) and at SGK (200 μM compound) was “no effect” throughout. Also, the remaining activity at 50 µM on PKBβ amounted to 85%. Further, the remaining activity at 200 µM at PKBβ was determined as 80%; on S6K (200 μM compound), 75%; on PKCζ it was 30%. Also, the “percent of catalytic activity of the Kinase in the presence of compound as compared to the solvent control (DMSO): S6K” value (shortened to “percent of catalytic activity … S6K”) on S6K (50 μM compound) is on record as “no effect”. Moreover, at PDK1, the activity at 50 µM is 400%. The activity at 200 µM on PDK1 was 500%. Further, the “percent of catalytic activity of the Kinase in the presence of compound as compared to the solvent control (DMSO): PKA” value (shortened to “percent of catalytic activity … PKA”) on PKA (50 μM compound) and on PKA (200 μM compound) was “no effect” each time. Further, at PKCζ (50 μM compound), the “percent of catalytic activity of the Kinase in the presence of compound as compared to the solvent control (DMSO): PKCζ” value was “no effect”.
As for `O=C(O)/C=C(\CCc1ccc(Cl)cc1)c1ccccc1F` [PS 145, (E)-5-(4-Chlorophenyl)-3-(2-fluorophenyl)pent-2-enoic acid], the remaining activity at 50 µM was approximately 80% at SGK (50 μM compound) and 50% on PKCζ (50 μM compound). Also, the remaining activity at 200 µM on SGK (200 μM compound) is approximately 40%; at PKBβ it was approximately 70%; at S6K (200 μM compound), approximately 80%; at PKA (200 μM compound, read-out: percent of catalytic activity of the Kinase in the presence of compound as compared to the solvent control (DMSO): PKA) it was approximately 60%; at PKCζ, 0%. The “percent of catalytic activity of the Kinase in the presence of compound as compared to the solvent control (DMSO): PKBβ” value on PKBβ is “no effect”. Moreover, the “percent of catalytic activity … S6K” value on S6K (50 μM compound) is “no effect”. In addition, the activity at 200 µM at PDK1 was approximately 120%. Besides, the “percent of catalytic activity … PKA” value at PKA (50 μM compound) was “no effect”.
For `O=C(O)/C=C(/CCc1ccc(Br)cc1)c1ccccc1` [PS-T10, (Z)-5-(4-Bromophenyl)-3-phenylpent-2-enoic acid], the “percent of catalytic activity … PRK2” value at PRK2 (50 μM compound) and on PRK2 (200 μM compound) was “no effect” throughout. In addition, the “percent of catalytic activity … SGK” value on SGK (50 μM compound) and at SGK (200 μM compound) was “no effect” each time. Besides, the “percent of catalytic activity of the Kinase in the presence of compound as compared to the solvent control (DMSO): PKBβ” value on PKBβ is given as “no effect”. The remaining activity at 200 µM on PKBβ lay within 70 to 80%. The “percent of catalytic activity … S6K” value on S6K (50 μM compound) and on S6K (200 μM compound) was “no effect” each time. Further, the activity at 50 µM on PDK1 worked out at 400%. Moreover, the activity at 200 µM at PDK1 amounted to 450%. The compound further had an AC50 at PDK1 of 14.5 µM. At PDK1, the “max. activation of PDK1 (fold)” value was 4.1 fold. Further, the “percent of catalytic activity … PKA” value on PKA (50 μM compound) and on PKA (200 μM compound) was “no effect” each time.
